Read-outs that look alike come from different tables or passages of the source.
Legend:
Details in all cases: Klebsiella pneumoniae
[1] = tested on: K. pneumoniae NVT1001 ΔramRΔompK35/36 mutant and its revertants; test: Etest MIC, ΔramRΔompK35/36 mutant and its revertants (Table 7); assay type: cell-based
[2] = tested on: K. pneumoniae NVT1001 and its ΔompK35/36 and/or ΔramR mutants; test: Etest MIC, OmpK35/36 loss and AcrAB-TolC overexpression (ΔramR) strains (Table 6); assay type: cell-based, Klebsiella pneumoniae
Method in brief: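 Ceftazidime and cefotaxime were tested by CLSI broth microdilution on the blaOXA-48 pACYC177 transformant of NVT1001, using CLSI 2017 breakpoints. Parent, porin-deleted (ΔompK35/36) and ΔramR strains were tested by Etest, with values between two-fold dilutions rounded up.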

[3] = tested on: K. pneumoniae NVT1001 strains with carbapenemase plasmids; test: Etest MIC of β-lactams, OmpK35/36 loss, ΔramR and/or carbapenemase (Table 9); assay type: cell-based, Klebsiella pneumoniae
Procedure: DNA fragments of the resistance genes along with their flanking regions were amplified from clinical plasmids via PCR with specific primer pairs. The resulting PCR fragments were digested and then cloned into the plasmid pACYC177 or pACYC184. The resulting plasmids were then transformed into K. pneumoniae strain NVT1001 via electroporation. The recombinant bacteria were plated onto LB agar plates containing kanamycin (50 mg/L) or chloramphenicol (50 mg/L), and the presence of the cloned gene was confirmed via PCR and DNA sequencing.
The MICs of antibiotics were determined using the Etest (Biodisk AB, Sweden) according to the manufacturer's instructions. The MICs from the Etest, which fall between standard two-fold dilutions, were rounded up to the next highest two-fold value. The MICs of ceftazidime and cefotaxime against K. pneumoniae NVT1001 harbouring the pACYC177 plasmid with blaOXA-48 were further determined using a broth microdilution test according to the recommendations of the CLSI,^25 and the results were interpreted according to the breakpoints established by the CLSI in 2017.^25 Meanwhile, due to the lack of CLSI breakpoints in 2016 and 2017, the results for cephalothin were interpreted according to the breakpoints established by the CLSI in 2015,^26 and the results for moxifloxacin were interpreted according to the breakpoints established by the EUCAST in 2017.^27

Measured: MIC

CO/N=C(\C(=O)N[C@@H]1C(=O)N2C(C(=O)[O-])=C(C[N+]3(C)CCCC3)CS[C@H]12)c1csc(N)n1 [Cefepime]
16 µg/mL: [3]; IMP-8 on pACYC177, WT (NVT1001), read-out: MIC
8 µg/mL: [3]; OXA-48 on pACYC177, Δ35/36 (ΔompK35/36 mutant) | [3]; OXA-48 on pACYC177, ΔramRΔ35/36 (ΔramRΔompK35/36 mutant) | [3]; OXA-48 on pACYC177, ΔramRΔ36 (ΔramRΔompK36 mutant)
0.06 µg/mL: [1]; ΔramRΔompK35/36::ramR::ompK35/36 revertant | [2]; WT, NVT1001, read-out: MIC | [3]; no supplemental plasmid, WT (NVT1001), read-out: MIC
256 µg/mL: [3]; KPC-3 on pACYC177, Δ36 (ΔompK36 mutant) | [3]; NDM-1 on pACYC177, ΔramRΔ35 (ΔramRΔompK35 mutant) | [3]; VIM-1 on pACYC177, Δ35 (ΔompK35 mutant)
> 256 µg/mL: [3]; IMP-8 on pACYC177, Δ35/36 (ΔompK35/36 mutant) | [3]; KPC-2 on pACYC177, Δ35/36 (ΔompK35/36 mutant) | [3]; KPC-2 on pACYC177, ΔramRΔ35/36 (ΔramRΔompK35/36 mutant) | [3]; KPC-2 on pACYC177, ΔramRΔ36 (ΔramRΔompK36 mutant) | [3]; KPC-3 on pACYC177, Δ35/36 (ΔompK35/36 mutant) | [3]; KPC-3 on pACYC177, ΔramRΔ35/36 (ΔramRΔompK35/36 mutant) | [3]; KPC-3 on pACYC177, ΔramRΔ36 (ΔramRΔompK36 mutant) | [3]; NDM-1 on pACYC177, Δ35/36 (ΔompK35/36 mutant) | [3]; NDM-1 on pACYC177, Δ36 (ΔompK36 mutant) | [3]; NDM-1 on pACYC177, ΔramR mutant | [3]; NDM-1 on pACYC177, ΔramRΔ35/36 (ΔramRΔompK35/36 mutant) | [3]; NDM-1 on pACYC177, ΔramRΔ36 (ΔramRΔompK36 mutant) | [3]; VIM-1 on pACYC177, Δ35/36 (ΔompK35/36 mutant) | [3]; VIM-1 on pACYC177, Δ36 (ΔompK36 mutant) | [3]; VIM-1 on pACYC177, ΔramR mutant | [3]; VIM-1 on pACYC177, ΔramRΔ35 (ΔramRΔompK35 mutant) | [3]; VIM-1 on pACYC177, ΔramRΔ35/36 (ΔramRΔompK35/36 mutant) | [3]; VIM-1 on pACYC177, ΔramRΔ36 (ΔramRΔompK36 mutant)
0.125 µg/mL: [1]; ΔramRΔompK35/36::ramR::ompK35 revertant | [1]; ΔramRΔompK35/36::ramR::ompK36 revertant | [2]; Δ35, ΔompK35 mutant | [2]; Δ36, ΔompK36 mutant | [3]; no supplemental plasmid, Δ35 (ΔompK35 mutant) | [3]; no supplemental plasmid, Δ36 (ΔompK36 mutant)
4 µg/mL: [2]; ΔramRΔ36, ΔramRΔompK36 mutant | [3]; no supplemental plasmid, ΔramRΔ36 (ΔramRΔompK36 mutant)
1 µg/mL: [1]; ΔramRΔompK35/36::ramR revertant | [2]; Δ35/36, ΔompK35/36 mutant | [3]; OXA-48 on pACYC177, Δ35 (ΔompK35 mutant) | [3]; OXA-48 on pACYC177, Δ36 (ΔompK36 mutant) | [3]; OXA-48 on pACYC177, ΔramR mutant | [3]; OXA-48 on pACYC177, ΔramRΔ35 (ΔramRΔompK35 mutant) | [3]; no supplemental plasmid, Δ35/36 (ΔompK35/36 mutant)
2 µg/mL: [1]; ΔramRΔompK35/36::ompK35 revertant | [1]; ΔramRΔompK35/36 mutant | [2]; ΔramRΔ35/36, ΔramRΔompK35/36 mutant | [3]; no supplemental plasmid, ΔramRΔ35/36 (ΔramRΔompK35/36 mutant)
64 µg/mL: [3]; IMP-8 on pACYC177, Δ36 (ΔompK36 mutant) | [3]; IMP-8 on pACYC177, ΔramRΔ35 (ΔramRΔompK35 mutant) | [3]; KPC-2 on pACYC177, WT (NVT1001), read-out: MIC | [3]; KPC-2 on pACYC177, Δ35 (ΔompK35 mutant) | [3]; KPC-2 on pACYC177, Δ36 (ΔompK36 mutant) | [3]; KPC-2 on pACYC177, ΔramR mutant | [3]; KPC-2 on pACYC177, ΔramRΔ35 (ΔramRΔompK35 mutant)
0.5 µg/mL: [1]; ΔramRΔompK35/36::ompK35/36 revertant | [1]; ΔramRΔompK35/36::ompK36 revertant | [2]; ΔramR mutant | [2]; ΔramRΔ35, ΔramRΔompK35 mutant | [3]; OXA-48 on pACYC177, WT (NVT1001), read-out: MIC | [3]; no supplemental plasmid, ΔramR mutant | [3]; no supplemental plasmid, ΔramRΔ35 (ΔramRΔompK35 mutant)
128 µg/mL: [3]; IMP-8 on pACYC177, ΔramRΔ35/36 (ΔramRΔompK35/36 mutant) | [3]; IMP-8 on pACYC177, ΔramRΔ36 (ΔramRΔompK36 mutant) | [3]; KPC-3 on pACYC177, WT (NVT1001), read-out: MIC | [3]; KPC-3 on pACYC177, Δ35 (ΔompK35 mutant) | [3]; KPC-3 on pACYC177, ΔramR mutant | [3]; KPC-3 on pACYC177, ΔramRΔ35 (ΔramRΔompK35 mutant) | [3]; NDM-1 on pACYC177, Δ35 (ΔompK35 mutant) | [3]; VIM-1 on pACYC177, WT (NVT1001), read-out: MIC
32 µg/mL: [3]; IMP-8 on pACYC177, Δ35 (ΔompK35 mutant) | [3]; IMP-8 on pACYC177, ΔramR mutant | [3]; NDM-1 on pACYC177, WT (NVT1001), read-out: MIC

Source: patent publication US10760110B2, “Antibiotic testing and screening system” (priority 2017, dated 2020)
